Results from PubChem BioAssay (NCI).
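Five concentrations, 48 hours, 96-well plates. GI50 = concentration required for 50% inhibition of growth. TGI is the concentration that stops growth completely.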

How the values were obtained:
Experiment in all cases: inhibition of tumour cell growth, NCI panel, 48 h
[1] = test system: IGROV1 ovarian
[2] = test system: SK-MEL-5 melanoma
[3] = test system: OVCAR-5 ovarian
[4] = test system: HCT-116 colon
[5] = test system: U251 CNS
[6] = test system: SK-MEL-2 melanoma
[7] = test system: KM20L2 colon
[8] = test system: MOLT-4 leukemia
[9] = test system: A498 renal
[10] = test system: MDA-N

What does the source list for `COc1cc2cc(OC)c3cc4c(cc3c2c(OC)c1OC)OCO4`?
TGI [1]: > 100 µM; TGI [2]: > 57.2 µM; TGI [3]: 90.9 µM; TGI [4]: > 84.4 µM; TGI [5]: > 59.3 µM; TGI [6]: > 100 µM; TGI [7]: 53.5 µM; TGI [8]: > 85.8 µM; TGI [9]: 97.5 µM

Which results are given for `O=C1CC(NC(=O)C(F)(F)F)c2c(Br)sc(N3CCNCC3)c21` (stereo not drawn)?
TGI [1]: > 100 µM; TGI [2]: > 100 µM; TGI [3]: > 100 µM; TGI [4]: > 100 µM; TGI [5]: > 100 µM; TGI [6]: > 100 µM; TGI [8]: > 100 µM; TGI [9]: > 100 µM; TGI [10]: > 100 µM

With `Cc1c(C(=O)CC(=O)C(=O)Nc2ccccc2C(F)(F)F)[n+](=O)c2ccccc2n1[O-]` as the compound, how does the TGI [1] read?
Its TGI is 47.5 µM.

And the TGI [2]?
The TGI was 30.4 µM.

What about the TGI [3] of the same compound?
The TGI was 65.9 µM.

And the TGI [4]?
The TGI was 28.3 µM.

And the TGI [5]?
Its TGI is 49 µM.

What about the TGI [6] of the same compound?
Its TGI is 48.3 µM.

And the TGI [7]?
The TGI was 92.3 µM.

And the TGI [9]?
Its TGI is over 100 µM.

For `CNS(=O)(=O)NNS(=O)(=O)c1ccccc1`, which TGI [1] is on record?
Its TGI is over 100 µM.

And the TGI [2]?
The TGI was over 100 µM.

And the TGI [3]?
Its TGI is over 100 µM.

And the TGI [4]?
Its TGI is over 100 µM.

What about the TGI [5] of the same compound?
The TGI was over 100 µM.

What about the TGI [6] of the same compound?
The TGI was over 100 µM.

And the TGI [7]?
The TGI was over 100 µM.

What about the TGI [8] of the same compound?
The TGI was over 100 µM.

What about the TGI [9] of the same compound?
The TGI was over 100 µM.

For `NC1=NCCC1(c1ccccc1)c1ccccn1` (stereo not drawn), which TGI [1] is on record?
The TGI was over 100 µM.

What about the TGI [2] of the same compound?
Its TGI is over 100 µM.

And the TGI [3]?
Its TGI is over 100 µM.

And the TGI [4]?
The TGI was over 100 µM.

And the TGI [5]?
The TGI was over 100 µM.

And the TGI [6]?
The TGI was over 100 µM.

And the TGI [7]?
The TGI was over 100 µM.

And the TGI [8]?
The TGI was over 100 µM.

What about the TGI [9] of the same compound?
Its TGI is over 100 µM.

`NC(N)=NS(=O)(=O)c1ccc(Nc2c3ccccc3nc3c(C(=O)NCCO)cccc23)cc1` was tested. Which GI50 [1] did it give?
The GI50 was 17.8 µM.

And the GI50 [2]?
Its GI50 is 15.6 µM.

What about the GI50 [3] of the same compound?
Its GI50 is 22.4 µM.

And the GI50 [4]?
The GI50 was 21.9 µM.

And the TGI [4]?
The TGI was over 100 µM.

And the GI50 [5]?
Its GI50 is 26 µM.

And the GI50 [6]?
Its GI50 is 26.6 µM.

What about the GI50 [8] of the same compound?
The GI50 was 4.78 µM.

What about the GI50 [9] of the same compound?
Its GI50 is 13.6 µM.

What about the GI50 [10] of the same compound?
Its GI50 is 17.8 µM.

How did the TGI [1] turn out when `O=C(CCc1nc(=S)[nH][nH]1)Nc1cc(Cl)c(Cl)cc1Cl` was run?
Its TGI is over 100 µM.

What about the TGI [2] of the same compound?
Its TGI is over 100 µM.

And the TGI [3]?
Its TGI is over 100 µM.

And the TGI [4]?
The TGI was over 100 µM.

And the TGI [5]?
The TGI was over 100 µM.

What about the TGI [6] of the same compound?
Its TGI is over 100 µM.

And the TGI [7]?
The TGI was over 100 µM.

And the TGI [8]?
Its TGI is over 100 µM.

What about the TGI [9] of the same compound?
Its TGI is over 100 µM.

`O=[N+]([O-])c1ccc2c(c1)/C(=N/N=C1c3ccccc3Cc3ccccc31)c1cc([N+](=O)[O-])cc([N+](=O)[O-])c1-2` was tested. Which TGI [1] did it give?
The TGI was 3.04 µM.

And the TGI [2]?
Its TGI is 15 µM.

What about the TGI [3] of the same compound?
Its TGI is 6 µM.

What about the TGI [4] of the same compound?
The TGI was 3.08 µM.

And the TGI [5]?
Its TGI is 10.7 µM.

What about the TGI [6] of the same compound?
The TGI was 24.8 µM.

And the TGI [8]?
Its TGI is 5.99 µM.

And the TGI [9]?
Its TGI is 18.2 µM.

What about the TGI [10] of the same compound?
Its TGI is 9.38 µM.

`NC(=O)NO.O.O.O.O.O.O.O.O.O.O.O.[Ge].[Ge].[Ge].[Ge].[Ge].[O]=[Ge].[O]=[Ge].[O]=[Ge].[O]=[Ge].[O]=[Ge][OH]` was tested. Which TGI [1] did it give?
Its TGI is over 100 µM.

What about the TGI [2] of the same compound?
The TGI was over 100 µM.

What about the TGI [3] of the same compound?
The TGI was over 100 µM.

And the TGI [4]?
Its TGI is over 100 µM.

And the TGI [5]?
Its TGI is 69.9 µM.

And the TGI [6]?
Its TGI is over 100 µM.

And the TGI [7]?
Its TGI is over 100 µM.

And the TGI [8]?
The TGI was over 100 µM.

What about the TGI [9] of the same compound?
The TGI was over 100 µM.

How did the TGI [1] turn out when `CCCCCCCCCCCC(=O)OCCOCCOCCOCCOCCOCc1ccccc1` was run?
Its TGI is over 100 µM.

And the TGI [2]?
The TGI was over 100 µM.

And the TGI [3]?
The TGI was over 100 µM.

What about the TGI [4] of the same compound?
The TGI was over 100 µM.

What about the TGI [5] of the same compound?
The TGI was over 100 µM.

What about the TGI [6] of the same compound?
Its TGI is over 100 µM.

What about the TGI [7] of the same compound?
Its TGI is over 100 µM.

What about the TGI [8] of the same compound?
The TGI was over 100 µM.

And the TGI [9]?
The TGI was over 100 µM.

Which TGI [1] does the source give for `CCOC(=O)C(C)(C)Oc1ccc2c(-c3ccccc3)cc(=O)oc2c1` here?
The TGI was over 100 µM.

And the TGI [2]?
Its TGI is 26.9 µM.

What about the TGI [4] of the same compound?
The TGI was over 100 µM.

What about the TGI [5] of the same compound?
Its TGI is over 100 µM.

And the TGI [6]?
The TGI was 48.7 µM.

And the TGI [7]?
The TGI was over 100 µM.

And the TGI [8]?
Its TGI is 54.6 µM.

And the TGI [9]?
Its TGI is over 100 µM.

Which results are given for `COc1cccc(C2c3cc4c(cc3OC(C)(N3CCCC3)C2C)OCO4)c1O` (stereo not drawn)?
TGI [1]: > 70 µM; TGI [2]: 13.3 µM; TGI [3]: 77.3 µM; TGI [4]: 47.9 µM; TGI [5]: 53.8 µM; TGI [6]: > 23.5 µM; TGI [8]: > 54.6 µM; TGI [9]: 40.5 µM; TGI [10]: 5.81 µM

For `CN1CCN(C2=NCCO2)CC1`, which TGI [1] is on record?
The TGI was over 100 µM.

What about the TGI [2] of the same compound?
The TGI was over 100 µM.

What about the TGI [3] of the same compound?
Its TGI is over 100 µM.

And the TGI [4]?
The TGI was over 100 µM.

What about the TGI [5] of the same compound?
Its TGI is over 100 µM.

What about the TGI [6] of the same compound?
Its TGI is over 100 µM.

What about the TGI [8] of the same compound?
Its TGI is over 100 µM.

And the TGI [9]?
Its TGI is over 100 µM.

What about the TGI [10] of the same compound?
Its TGI is over 100 µM.

What does the source list for `CCOC(=O)/C=C/CC(C)(C)CCOC(C)=O`?
TGI [1]: > 10 µM; TGI [2]: > 10 µM; TGI [3]: > 10 µM; TGI [4]: > 10 µM; TGI [5]: > 10 µM; TGI [6]: > 10 µM; TGI [8]: > 10 µM; TGI [10]: > 10 µM

With `Cc1ccc(Cl)c2c(N=Nc3ccccc3[N+](=O)[O-])c(O)[nH]c12` as the compound, how does the TGI [1] read?
Its TGI is over 100 µM.

And the TGI [3]?
The TGI was over 100 µM.

And the TGI [4]?
Its TGI is over 100 µM.

What about the TGI [5] of the same compound?
The TGI was over 100 µM.

And the TGI [6]?
The TGI was over 100 µM.

And the TGI [8]?
The TGI was over 100 µM.

What about the TGI [9] of the same compound?
Its TGI is over 100 µM.

What about the TGI [10] of the same compound?
Its TGI is over 100 µM.

How did the TGI [1] turn out when `Clc1ccccc1C(SCc1ccccc1)SCc1ccccc1` was run?
The TGI was over 100 µM.

And the TGI [2]?
Its TGI is over 100 µM.

What about the TGI [3] of the same compound?
The TGI was over 100 µM.

What about the TGI [4] of the same compound?
The TGI was over 100 µM.

And the TGI [5]?
The TGI was over 100 µM.

And the TGI [6]?
The TGI was over 100 µM.

And the TGI [8]?
The TGI was over 100 µM.

What about the TGI [10] of the same compound?
Its TGI is over 100 µM.

What does the source list for `O=C(CCNC12CC3CC(CC(C3)C1)C2)c1ccccc1`?
TGI [1]: 55.4 µM; TGI [2]: 32.7 µM; TGI [3]: 71.7 µM; TGI [4]: 29.4 µM; TGI [5]: 31.9 µM; TGI [6]: 30 µM; TGI [8]: 35.3 µM; TGI [9]: 62.9 µM; TGI [10]: 30.5 µM

`Fc1ccc(NC(=S)SCc2ccc3c(c2)OCO3)cc1F` was tested. Which TGI [1] did it give?
The TGI was 39.6 µM.

What about the TGI [2] of the same compound?
Its TGI is 29.5 µM.

And the TGI [3]?
The TGI was 46.3 µM.

What about the TGI [4] of the same compound?
Its TGI is over 100 µM.

What about the TGI [5] of the same compound?
The TGI was 43.1 µM.

What about the TGI [6] of the same compound?
Its TGI is 36 µM.

What about the TGI [8] of the same compound?
The TGI was 39.8 µM.

What about the TGI [9] of the same compound?
Its TGI is 61.8 µM.

And the TGI [10]?
The TGI was 34.7 µM.
